Key:
[1] = biological target: T1, GPR17 (Homo sapiens, UniProt Q13304); test: Calcium mobilization functional assay (GPR17 Ca2+ assay); format: cell-based; parameters: host or cells: Flp-In T-REx CHO; conditions: CHO hGPR17 cells, inhibition of 50 nM MDL29,951, Calcium 5 dye, FLIPR; read-out: Ca2+ assay pIC50 (converted)
In short: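 Flp-In T-REx CHO cells stably expressing human GPR17, doxycycline-induced (1 μg/mL, 16-20 h), loaded 60 min with Calcium 5 dye. Inhibition by varying test-compound concentrations of the 50 nM MDL29,951 agonist response was read by fluorescence over time at room temperature. pIC50 came from 4-parameter logistic fitting.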

[2] = biological target: T1, GPR17; test: cAMP accumulation functional assay (HTRF, Schild analysis); format: cell-based; parameters: host or cells: Flp-In T-REx CHO; conditions: CHO hGPR17 cells, Schild analysis vs MDL29,951, 5 μM forskolin, read-out: cAMP assay pA2 (converted)
In short: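 CHO Flp-In T-REx cells with doxycycline-induced human GPR17 were preincubated 30 min at room temperature in HBSS-HEPES pH 7.4 with antagonist. cAMP was then measured by HTRF after 60 min. MDL29,951 pEC50 shifts gave dose ratios, and Schild analysis gave pA2.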

T1 sequence (Q13304 whole entry): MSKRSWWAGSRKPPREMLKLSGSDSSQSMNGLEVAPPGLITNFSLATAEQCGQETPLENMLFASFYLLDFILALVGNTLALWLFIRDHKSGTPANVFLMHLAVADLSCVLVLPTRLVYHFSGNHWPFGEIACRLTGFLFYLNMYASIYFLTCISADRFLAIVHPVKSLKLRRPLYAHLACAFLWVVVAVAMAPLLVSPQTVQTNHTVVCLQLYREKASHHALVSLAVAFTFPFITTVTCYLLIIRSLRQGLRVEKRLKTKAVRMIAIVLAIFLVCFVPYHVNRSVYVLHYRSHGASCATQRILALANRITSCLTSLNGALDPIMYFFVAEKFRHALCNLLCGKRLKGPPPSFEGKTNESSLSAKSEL

Row | IC50 [1] [nM] | Kb [2] [nM] | Compound
1 | 3.16 to 31.6 | 3.16 to 31.6 | O=S(=O)(Nc1cc(F)c(Cl)cc1F)c1c[nH]c2cc(Br)cc(F)c12 [Compound I-251, 6-bromo-N-(4-chloro-2,5-difluorophenyl)-4-fluoro-1H-indole-3-sulfonamide]
2 | < 3.16 | < 3.16 | N#Cc1cc(F)c(NS(=O)(=O)c2c[nH]c3cc(C(F)(F)F)ccc23)cc1F [Compound I-184, N-(4-cyano-2,5-difluorophenyl)-6-(trifluoromethyl)-1H-indole-3-sulfonamide]
3 | < 3.16 | < 3.16 | N#Cc1cc(F)c(NS(=O)(=O)c2c[nH]c3c2ccc2ccccc23)cc1F [Compound I-151, N-(4-cyano-2,5-difluorophenyl)-1H-benzo[g]indole-3-sulfonamide]
4 | < 3.16 | < 3.16 | COc1nc(NS(=O)(=O)c2c[nH]c3cc(N=[N+]=[N-])ccc23)c(F)cc1CC#N [Compound I-353, 6-azido-N-[5-(cyanomethyl)-3-fluoro-6-methoxypyridin-2-yl]-1H-indole-3-sulfonamide]
5 | < 3.16 | 3.16 to 31.6 | N#Cc1ccc(NS(=O)(=O)c2c[nH]c3cc(Cl)c(F)cc23)c(F)c1 [Compound I-258, 6-chloro-N-(4-cyano-2-fluorophenyl)-5-fluoro-1H-indole-3-sulfonamide]
6 | 3.16 to 31.6 | 3.16 to 31.6 | O=S(=O)(Nc1ccc(Cl)cc1F)c1c[nH]c2nc(Cl)ccc12 [Compound I-224, 6-chloro-N-(4-chloro-2-fluorophenyl)-1H-pyrrolo[2,3-b]pyridine-3-sulfonamide]
7 | 3.16 to 31.6 | > 31.6 | N#Cc1ccc(NS(=O)(=O)c2c[nH]c3ncc(I)cc23)cc1 [Compound I-79, N-(4-cyanophenyl)-5-iodo-1H-pyrrolo[2,3-b]pyridine-3-sulfonamide]
8 | > 31.6 | > 31.6 | O=S(=O)(Nc1ccc(Cl)cc1)c1c[nH]c2cc(Cl)ccc12 [Compound I-24, 6-chloro-N-(4-chlorophenyl)-1H-indole-3-sulfonamide]
9 | > 31.6 | 3.16 to 31.6 | O=S(=O)(Nc1cc2c(cc1F)OC(F)(F)O2)c1c[nH]c2nc(Cl)ccc12 [Compound I-225, 6-chloro-N-(2,2,6-trifluoro-1,3-benzodioxol-5-yl)-1H-pyrrolo[2,3-b]pyridine-3-sulfonamide]
10 | < 3.16 | < 3.16 | COCCCc1cc(F)c(NS(=O)(=O)c2c[nH]c3cc(Br)ccc23)nc1F [Compound I-323, 6-bromo-N-[3,6-difluoro-5-(3-methoxypropyl)pyridin-2-yl]-1H-indole-3-sulfonamide]
11 | 3.16 to 31.6 | < 3.16 | COc1c(Cl)ccc2c(S(=O)(=O)Nc3cc(F)c(Cl)cc3F)c[nH]c12 [Compound I-244, 6-chloro-N-(4-chloro-2,5-difluorophenyl)-7-methoxy-1H-indole-3-sulfonamide]
12 | < 3.16 | 3.16 to 31.6 | O=S(=O)(Nc1cccc2nsnc12)c1c[nH]c2cc(Cl)ccc12 [Compound I-109, N-(2,1,3-benzothiadiazol-4-yl)-6-chloro-1H-indole-3-sulfonamide]
13 | 3.16 to 31.6 | 3.16 to 31.6 | C#Cc1ccc(NS(=O)(=O)c2c[nH]c3cc(OC)ccc23)c(F)c1 [Compound I-274, N-(4-ethynyl-2-fluorophenyl)-6-methoxy-1H-indole-3-sulfonamide]
14 | > 31.6 | > 31.6 | O=S(=O)(Nc1cc(F)c(Cl)cc1F)c1c[nH]c2cc(-c3ccsc3)ccc12 [Compound I-236, N-(4-chloro-2,5-difluorophenyl)-6-(thiophen-3-yl)-1H-indole-3-sulfonamide]
15 | 3.16 to 31.6 | 3.16 to 31.6 | O=S(=O)(Nc1cc(F)c(F)cc1F)c1c[nH]c2c1ccc1cccnc12 [Compound I-67, N-(2,4,5-trifluorophenyl)-1H-pyrrolo[3,2-h]quinoline-3-sulfonamide]
16 | < 3.16 | < 3.16 | N#Cc1ccc(NS(=O)(=O)c2c[nH]c3nc(Br)ccc23)c(F)c1 [Compound I-177, 6-bromo-N-(4-cyano-2-fluorophenyl)-1H-pyrrolo[2,3-b]pyridine-3-sulfonamide]
17 | < 3.16 | < 3.16 | O=S(=O)(Nc1cc2nsnc2cc1F)c1c[nH]c2cc(Cl)ccc12 [Compound I-162, 6-chloro-N-(6-fluoro-2,1,3-benzothiadiazol-5-yl)-1H-indole-3-sulfonamide]
18 | > 31.6 | > 31.6 | COc1cnc(NS(=O)(=O)c2c[nH]c3cc(Cl)ccc23)c(OC)c1 [Compound I-264, 6-chloro-N-(3,5-dimethoxypyridin-2-yl)-1H-indole-3-sulfonamide]
19 | 3.16 to 31.6 | 3.16 to 31.6 | O=S(=O)(Nc1cccc2nsnc12)c1c[nH]c2cc(C(F)(F)F)ccc12 [Compound I-186, N-(2,1,3-benzothiadiazol-4-yl)-6-(trifluoromethyl)-1H-indole-3-sulfonamide]

Row | IC50 [1] [nM] | Kb [2] [nM] | Compound
20 | 3.16 to 31.6 | 3.16 to 31.6 | CS(=O)(=O)c1ccc2c(S(=O)(=O)Nc3ccc(Cl)cc3F)c[nH]c2c1 [Compound I-50, N-(4-chloro-2-fluorophenyl)-6-(methylsulfonyl)-1H-indole-3-sulfonamide]
21 | > 31.6 | > 31.6 | O=S(=O)(Nc1ccc(F)cc1F)c1c[nH]c2nc(Br)ccc12 [Compound I-91, 6-bromo-N-(2,4-difluorophenyl)-1H-pyrrolo[2,3-b]pyridine-3-sulfonamide]
22 | < 3.16 | < 3.16 | O=S(=O)(Nc1nc(F)c(OCCF)cc1F)c1c[nH]c2cc(Cl)ccc12 [Compound I-364, 6-chloro-N-[3,6-difluoro-5-(2-fluoroethoxy)pyridin-2-yl]-1H-indole-3-sulfonamide]
23 | > 31.6 | 3.16 to 31.6 | COc1cc(Cl)c(F)cc1NS(=O)(=O)c1c[nH]c2cc(Cl)ccc12 [Compound I-208, 6-chloro-N-(4-chloro-5-fluoro-2-methoxyphenyl)-1H-indole-3-sulfonamide]
24 | > 31.6 | > 31.6 | Cc1ccnc(NS(=O)(=O)c2c[nH]c3cc(Cl)ccc23)c1 [Compound I-59]
25 | < 3.16 | < 3.16 | O=S(=O)(Nc1ccc(I)cc1F)c1c[nH]c2nc(Br)ccc12 [Compound I-104, 6-bromo-N-(2-fluoro-4-iodophenyl)-1H-pyrrolo[2,3-b]pyridine-3-sulfonamide]
26 | 3.16 to 31.6 | 3.16 to 31.6 | O=S(=O)(Nc1nc(F)c(Cl)cc1F)c1c[nH]c2nc(Cl)ccc12 [Compound I-307, 6-chloro-N-(5-chloro-3,6-difluoropyridin-2-yl)-1H-pyrrolo[2,3-b]pyridine-3-sulfonamide]
27 | > 31.6 | > 31.6 | N#Cc1ccc2c(S(=O)(=O)Nc3ccc(Cl)cc3F)c[nH]c2c1 [Compound I-76, N-(4-chloro-2-fluorophenyl)-6-cyano-1H-indole-3-sulfonamide]
28 | < 3.16 | < 3.16 | COc1cc(CC#N)cnc1NS(=O)(=O)c1c[nH]c2cc(Cl)ccc12 [Compound I-194, 6-chloro-N-[5-(cyanomethyl)-3-methoxypyridin-2-yl]-1H-indole-3-sulfonamide]
29 | 3.16 to 31.6 | 3.16 to 31.6 | C#Cc1ccc(NS(=O)(=O)c2c[nH]c3nc(Br)ccc23)cc1 [Compound I-85, 6-bromo-N-(4-ethynylphenyl)-1H-pyrrolo[2,3-b]pyridine-3-sulfonamide]
30 | 3.16 to 31.6 | 3.16 to 31.6 | O=S(=O)(Nc1cccc2nsnc12)c1c[nH]c2nc(Cl)ccc12 [Compound I-93, N-(2,1,3-benzothiadiazol-4-yl)-6-chloro-1H-pyrrolo[2,3-b]pyridine-3-sulfonamide]
31 | 3.16 to 31.6 | 3.16 to 31.6 | O=S(=O)(Nc1cc(F)c(Cl)cc1F)c1c[nH]c2cc(Cl)c(F)cc12 [Compound I-263, 6-chloro-N-(4-chloro-2,5-difluorophenyl)-5-fluoro-1H-indole-3-sulfonamide]
32 | 3.16 to 31.6 | < 3.16 | O=S(=O)(Nc1cc(F)c(Cl)cc1F)c1c[nH]c2c(Cl)c(Br)ccc12 [Compound I-347, 6-bromo-7-chloro-N-(4-chloro-2,5-difluorophenyl)-1H-indole-3-sulfonamide]
33 | < 3.16 | < 3.16 | O=S(=O)(Nc1ncc(Cl)cc1F)c1c[nH]c2cc(Br)ccc12 [Compound I-290, 6-Bromo-N-(5-chloro-3-fluoropyridin-2-yl)-1H-indole-3-sulfonamide]
34 | 3.16 to 31.6 | 3.16 to 31.6 | O=S(=O)(Nc1cc(F)ccc1F)c1c[nH]c2cc(Cl)ccc12 [Compound I-9, 6-chloro-N-(2,5-difluorophenyl)-1H-indole-3-sulfonamide]
35 | < 3.16 | 3.16 to 31.6 | COc1ccc2c(S(=O)(=O)Nc3ccc(C(F)(F)F)cc3F)c[nH]c2c1 [Compound I-287, N-(2-fluoro-4-(trifluoromethyl)phenyl)-6-methoxy-1H-indole-3-sulfonamide]
36 | 3.16 to 31.6 | 3.16 to 31.6 | O=S(=O)(Nc1ccc(OC(F)(F)F)cc1F)c1c[nH]c2nc(Cl)ccc12 [Compound I-273, 6-chloro-N-[2-fluoro-4-(trifluoromethoxy)phenyl]-1H-pyrrolo[2,3-b]pyridine-3-sulfonamide]
37 | 3.16 to 31.6 | 3.16 to 31.6 | Cc1ccc2c(S(=O)(=O)Nc3ccc(Br)cc3F)c[nH]c2c1 [Compound I-173, N-(4-bromo-2-fluorophenyl)-6-methyl-1H-indole-3-sulfonamide]

From US12071404B2, “Aza (indole)-, benzothiophene-, and benzofuran-3-sulfonamides” (UCB Pharma GmbH, priority 2016, dated 2024)
